In patent publication US4874777A, “Leukotriene antagonists” (Eli Lilly and Company, priority 1987, dated 1989):

Test system: LTD4 evoked ileal contractions
Assay: LTD4 antagonism in isolated guinea pig ileum (inhibition of LTD4 evoked ileal contractions)
Format: cell-based, guinea pig (male, Hartley)
Details: Cavia porcellus; for IC50: 50% inhibition of LTD4 responses, interpolated by linear regression from 2-4 concentrations; for inhibition at 0.1 µM: compound concentration 1 × 10^-7 M; for inhibition at 0.1 µM / inhibition at 0.01 µM / inhibition at 0.003 µM / inhibition at 0.3 µM / inhibition at 0.03 µM: read-out: Percent inhibition of LTD4 evoked ileal contractions; for inhibition at 0.01 µM: compound concentration 1 × 10^-8 M; for inhibition at 0.003 µM: compound concentration 3 × 10^-9 M; for inhibition at 0.3 µM: compound concentration 3 × 10^-7 M; for inhibition at 0.03 µM: compound concentration 3 × 10^-8 M
Procedure: Male, Hartley guinea pigs weighing 200-450 grams were killed by decapitation. A section of terminal ileum was removed, the lumen cleaned, and the tissue divided into 2.5 cm. segments. The ilea were mounted in 10 ml. tissue baths containing Krebs-bicarbonate solution of the following composition in mmoles/liter: KCl, 4.6; CaCl2 ·H2 O, 1.2; KH2 PO4, 1.2; MgSO4 ·7H2 O, 1.2; NaCl, 118.2; NaHCO3, 24.8; and dextrose, 10.0. The bath fluid was maintained at 37° C. and aerated with 95 percent oxygen and 5 percent CO2. In addition, the buffer contained 1×10^-6 M atropine to reduce ileal spontaneous activity. Isometric measurements were made with a Grass FTO3C force-displacement transducer and recorded on a Gras polygraph as change in grams of force. A passive force of 0.5 g. was applied to the tissues. After an appropriate equilibration period, single submaximal control responses to pure LTD4 were obtained. Following a five minute exposure of the ileum to an experimental drug, the control concentration of LTD4 was added to the tissue bath. The response of the ileum to LTD4 in the presence of the drug was compared to the response in the absence of the drug. Various degrees of LTD4 antagonism were obtained using 2-4 different concentrations of an experimental compound on a single ileum.

SMILES	IC50	inhibition at 0.1 µM	inhibition at 0.01 µM	inhibition at 0.003 µM	inhibition at 0.3 µM	inhibition at 0.03 µM
CCCc1c(COc2ccc(C(=O)CC(C)(C)CC(=O)O)cc2)ccc(C(C)=O)c1O [Example 6, 4-[(4-Acetyl-3-hydroxy-2-propylphenyl)methoxy]-β,β-dimethyl-δ-oxobenzenepentanoic acid]	0.0186 µM	78%	41%	16%		
CCCc1c(COc2ccc(C(=O)CCc3nnn[nH]3)cc2)ccc(C(C)=O)c1O [Example 9, 1-{4-[(4-Acetyl-3-hydroxy-2-propylphenyl)methoxy]phenyl}-3-(1H-tetrazol-5-yl)-1-propanone]	0.0263 µM	85%	25%		91%	54%
CCc1c(COc2ccc(C(=O)CC(C)(C)CC(=O)O)cc2)ccc(C(C)=O)c1O [Example 23, 4-[(4-Acetyl-2-ethyl-3-hydroxyphenyl)methoxy]-β,β-dimethyl-δ-oxobenzenepentanoic acid]	0.0214 µM	88%	25%			66%
CCCc1c(COc2ccc(C(=O)CC(C)(C)Cc3nnn[nH]3)cc2)ccc(C(C)=O)c1O [Example 15, 1-{4-[(4-Acetyl-3-hydroxy-2-propylphenyl)methoxy]phenyl}-3,3-dimethyl-4-(1H-tetrazol-5-yl)-1-butanone]	0.00324 µM			50%		91%
CCCc1c(COc2ccc(C(=O)CCCc3nnn[nH]3)c(O)c2)ccc(C(C)=O)c1O [Example 13, 1-{4-[(4-Acetyl-3-hydroxy-2-propylphenyl)methoxy]-2-hydroxyphenyl}-4-(1H-tetrazol-5-yl)-1-butanone]	0.0245 µM		28%		82%	
CCCc1c(COc2ccc3c(c2)CCC(CC(=O)O)C3=O)ccc(C(C)=O)c1O (stereo not shown) [Example 28, 6-[(4-Acetyl-3-hydroxy-2-propylphenyl)methoxy]-1,2,3,4-tetrahydro-1-oxo-2-naphthaleneacetic acid]	0.0102 µM					
CCCc1c(COc2ccc(C(=O)C(C)Cc3nnn[nH]3)cc2)ccc(C(C)=O)c1O (stereo not shown) [Example 14, 1-{4-[(4-Acetyl-3-hydroxy-2-propylphenyl)methoxy]phenyl}-2-methyl-3-(1H-tetrazol-5-yl)-1-propanone]	0.0204 µM		35%			58%
CCCc1c(COc2ccc(C(=O)Cc3nnn[nH]3)cc2)ccc(C(C)=O)c1O [Example 8, 1-{4-[(4-acetyl-3-hydroxy-2-propylphenyl)methoxy]phenyl}-2-(1H-tetrazol-5-yl)ethanone]	0.0219 µM		40%			54%
CCCc1c(COc2ccc(C(=O)CC3(CC(=O)O)CCCC3)cc2)ccc(C(C)=O)c1O [Example 24, 1-(2-{4-[(4-Acetyl-3-hydroxy-2-propylphenyl)methoxy]phenyl}-2-oxoethyl)cyclopentaneacetic acid]	0.0135 µM	85%	35%			74%
CCCc1c(COc2ccc(C(=O)CCC(=O)O)cc2)ccc(C(C)=O)c1O [Example 1, 4-[(4-Acetyl-3-hydroxy-2-propylphenyl)methoxy]-γ-oxobenzenebutanoic acid]	0.0331 µM				97%	48%
CCCc1c(COc2ccc(C(=O)CCCC(=O)O)cc2)ccc(C(C)=O)c1O [Example 7, 4-[(4-Acetyl-3-hydroxy-2-propylphenyl)methoxy]-δ-oxobenzenepentanoicacid]	0.0372 µM	68%	17%			
CCc1c(COc2ccc(C(=O)CC(C)(C)Cc3nnn[nH]3)cc2)ccc(C(C)=O)c1O [Example 16, 1-{4-[(4-Acetyl-3-hydroxy-2-ethylphenyl)methoxy]phenyl}-3,3-dimethyl-4-(1H-tetrazol-5-yl)-1-butanone]	0.00479 µM	95%	63%	41%		
CCCc1c(COc2cccc(C(=O)CCCc3nnn[nH]3)c2)ccc(C(C)=O)c1O [Example 18, 1-{3-[(4-Acetyl-3-hydroxy-2-propylphenyl)methoxy]phenyl}-4-(1H-tetrazol-5-yl)-1-butanone]	0.0182 µM	84%	34%			65%
CCCc1c(COc2ccc(C(=O)CCCCCc3nnn[nH]3)cc2)ccc(C(C)=O)c1O [Example 19, 1-{4-[(4-Acetyl-3-hydroxy-2-propylphenyl)methoxy]phenyl}-6-(1H-tetrazol-5-yl)-1-hexanone]	0.0324 µM	80%				47%
CCCc1c(COc2ccc(C(=O)CCCc3nnn[nH]3)cc2)ccc(C(C)=O)c1O [Example 10, 1-{4-[(4-Acetyl-3-hydroxy-2-propylphenyl)methoxy]-phenyl}-4-(1H-tetrazol-5-yl)-1-butanone]	0.00479 µM	95%	57%	46%	94%	76%
CCCc1c(COc2ccc(C(=O)CCCCc3nnn[nH]3)cc2)ccc(C(C)=O)c1O [Example 11, 1-{4-[(4-Acetyl-3-hydroxy-2-propylphenyl)methoxy]phenyl}-5-(1H-tetrazol-5-yl)-1-pentanone]	0.0245 µM		43%			51%
CCCc1c(COc2ccc(C(=O)C(C)(C)Cc3nnn[nH]3)cc2)ccc(C(C)=O)c1O [Example 12, 1-{4-[(4-Acetyl-3-hydroxy-2-propylphenyl)methoxy]phenyl}-2,2-dimethyl-3-(1H-tetrazol-5-yl)-1-propanone]	0.0513 µM				60%	41%
CCCc1c(COc2ccc(C(=O)CCCCC(=O)O)cc2)ccc(C(C)=O)c1O [Example 5, 4-[(4-Acetyl-3-hydroxy-2-propylphenyl)methoxy]-ε-oxobenzenehexanoic acid]	0.0158 µM	86%	40%			63%
CCCc1c(COc2ccc3c(c2)C(=O)C(CC(=O)O)CC3)ccc(C(C)=O)c1O (stereo not shown) [Example 29, 7-[(4-Acetyl-3-hydroxy-2-propylphenyl)methoxy]-1,2,3,4-tetrahydro-1-oxo-2-naphthaleneacetic acid]	0.0759 µM					
